Test [1] has as its system microorganisms. Kind of test: Targeting peptide binding to target microorganisms (Tables 3, 10, 12). The note with it: microorganism(s) the targeting peptide binds; binding in aqueous buffers varied with peptide solubility, preferably 1x PBS.
Another test relates to S. pneumoniae. Kind of test: MIC test / antimicrobial activity, S. pneumoniae. Format: cell-based, Streptococcus pneumoniae. The method, then:
(§1) The active AMPs, STAMPs and the like can be identified and/or validated using an in vitro screening assay.
(§2) It will be appreciated that other assays as are well known in the art or that will become apparent to those having skill in the art upon review of this disclosure may also be used to identify active AMPs. Such assays include, for example, the assay described in Lehrer et al. (1988) J. Immunol.
(§3) Peptides were evaluated for basic antimicrobial activity by broth microdilution, as described previously (Eckert et al. (2006) Antimicrob Agents Chemother., 50: 3651-3657; Eckert et al. (2006) Antimicrob Agents Chemother., 50: 1480-1488). Briefly, ˜1×10^5 cfu/mL bacteria were diluted in TH (S. mutans), or Mueller-Hinton (MH) broth (all other organisms) and distributed to 96-well plates. Serially-diluted (2-fold) peptides were then added and the plates incubated at 37° C. for 18-24 h. […] All experiments were conducted 10 times.

The subject of test [2] is microorganisms. Kind of test: Peptide activities: targeting/binding, antimicrobial, growth or phenotype altering (Tables 7, 8). Format: cell-based. Conditions: peptides having multiple activities.
In another test the test system is S. mutans. Kind of test: MIC test (broth microdilution) / antimicrobial activity, S. mutans. In kind it is cell-based, Streptococcus mutans. The method, then: as §1, §2, §3
The test system of test [3] is microorganisms. Kind of test: Morphology, biofilm and growth disrupting peptides (Table 5). In kind it is cell-based. The arrangement: key: A: Peptide aggregates; B: Less hyphal formation; Clumps; Diffuse clumps and small polyps; F: Diffuse growth; H: Thin; I: Growth inhibition; Microcolony formation; Rippled; Small polyps; Thick; W: Halo formation on top, microlonies on bottom. An excerpt:
In certain embodiments peptides that induce alterations in phenotype or other biological activities can also be used as antimicrobial effector moieties.

The next test relates to B. subtilis. Kind of test: MIC test / antimicrobial activity, B. subtilis. Conditions: B. subtilis. In kind it is cell-based, Bacillus subtilis. As to the method:
as §1, §2, §3

“Also recorded” adds a separate entry of the source. Ends that are not written are not given here.

As to ASKQASKQASKQASKQASKQASRSLKNHLL [PF-523], the “Target(s)” value in the test with microorganisms [1] was “S. epidermidis; also recorded: M. luteus; also recorded: C. albicans; also recorded: S. pneumoniae; also recorded: C. jeikeium; also recorded: C. jejuni”. The “Organism MIC (μM)” value with S. pneumoniae is “S. pneumoniae, 50 μM”. For the same molecule, the Activities result with microorganisms [2] was “B M”.
Take FIRKFLKKWLL [K-9]: the “Organism MIC (μM)” value in the test with S. mutans is on record as “S. mutans, 4 μM”.
In the case of FLKFLKKFFKKLKY [K-20], the “Organism MIC (μM)” value in the test on S. mutans was “S. mutans, 8 μM”.
Turning to FQKPFTGEEVEDFQDDDEIPTII [PF-437], the “Organism, effect” value with microorganisms [3] (S. pneumoniae) is recorded as “S. pneumoniae (I)”. Further, in the test on S. pneumoniae, the “Organism MIC (μM)” value is given as “S. pneumoniae, 50 μM”. The Activities result in the test with microorganisms [2] was “G M”.
On to FTRKFLKFLHL [K-17], for which the “Organism MIC (μM)” value in the test with S. mutans was “S. mutans, 8 μM”.
The same measure, in the same setting: next, GIFKKFVKILYKVQKL [K-22]: “S. mutans, 8 μM”.
On to GILKKLFTKVF [K-13], for which the “Organism MIC (μM)” value with S. mutans is reported as “S. mutans, 16 μM”.
As to GIVLIGLKLIPLLANVLR [PF-322], in the test with microorganisms [3], the “Organism, effect: B. subtilis” value was “B. subtilis (H)” and the “Organism, effect: S. epidermidis” value is “S. epidermidis (C)”. Further, in the test on B. subtilis, the “Organism MIC (μM)” value was “B. subtilis, 50 μM”. Moreover, the Activities entry in the test with microorganisms [2] is given as “G M”.
As for GLGRVIGRLIKQIIWRR [K-1], in the test on S. mutans, the “Organism MIC (μM)” value is given as “S. mutans, 25 μM”.
The same measure, in the same setting: next, GWLKMFKKIIGKFGKF [K-21]: “S. mutans, 8 μM”; KILKFLFKKVF [K-8]: “S. mutans, 4 μM”.
In the case of KILKFLFKQVF [K-11], the “Organism MIC (μM)” value with S. mutans was “S. mutans, 4 μM”.
Still for that read-out and setting: for KILKKLFKFVF [K-12] the value was “S. mutans, 8 μM”.
The same measure, in the same setting: for KKFKKFKVLKIL [K-18] the value was “S. mutans, 16 μM”.
Same read-out and setting: next, KLFKFLRKHLL [K-10]: “S. mutans, 4 μM”.
“LGLTAGVAYAAQPTNQPTNQPTNQPTNQPTNQPTNQPRW-NH2 [PF-520]”: in the test with microorganisms [3] (S. pneumoniae), the “Organism, effect” value was “S. pneumoniae (M)”. For the same molecule, the “Organism MIC (μM)” value in the test with S. pneumoniae is given as “S. pneumoniae, 50 μM”. In addition, the Activities result in the test with microorganisms [2] is recorded as “G B M”.
With LLKLLKLKKLKF [K-19], the “Organism MIC (μM)” value with S. mutans was “S. mutans, 16 μM”.
Regarding LRKFLHKLF [K-14], the “Organism MIC (μM)” value in the test with S. mutans is reported as “S. mutans, 8 μM”.
Take LRKNLRWLF [K-15]: the “Organism MIC (μM)” value in the test on S. mutans is “S. mutans, 4 μM”.
For the molecule LVLRICTDLFTFIKWTIKQRKS [PF-497], the “Organism MIC (μM)” value with B. subtilis is reported as “B. subtilis, 50 μM”. Further, the “Target(s)” value in the test on microorganisms [1] is “S. mutans; also recorded: B. subtilis; also recorded: E. coli”. Besides, the Activities entry in the test with microorganisms [2] is “B M”.
As to NYRLVNAIFSKIFKKKFIKF [K-7], in the test with S. mutans, the “Organism MIC (μM)” value is “S. mutans, 12.5 μM”.
As to “PF-C145: peptide having multiple activities (chain 1 YGKESDP; chain 2 YGKESDP; Peptide with targeting and/or antimicrobial activity)”, the “Organism, effect” value in the test on microorganisms [3] (F. nucleatum) is “F. nucleatum (C)”; with microorganisms [3] (S. mutans) it was “S. mutans (I)”. In addition, the “Target(s)” value in the test on microorganisms [1] is given as “A. naeslundii; also recorded: F. nucleatum; also recorded: P. gingivalis; also recorded: S. mutans; also recorded: T. denticola”. Further, in the test on microorganisms [2], the Activities result is “G B”.
Regarding “PF-C281: peptide having multiple activities (chain 1 KKEKLLTAIRLQHRAEIRGYFTIFFLFFRI; chain 2 KKEKLLTAIRLQHRAEIRGYFTIFFLFFRI; Peptide with targeting and/or antimicrobial activity)”, the “Organism, effect” value in the test on microorganisms [3] (S. mutans) was “S. mutans (F)”. In the test on microorganisms [1], the “Target(s)” value is “A. naeslundii; also recorded: F. nucleatum; also recorded: P. gingivalis; also recorded: S. mutans; also recorded: T. denticola”. Further, the Activities entry with microorganisms [2] was “G B”.
With “PF-C291: peptide having multiple activities (chain 1 HPFLTGTGCPLFLIFRLFFVKAYFSFTVF; chain 2 HPFLTGTGCPLFLIFRLFFVKAYFSFTVF; Peptide with targeting and/or antimicrobial activity)”, the “Organism, effect” value is recorded as “F. nucleatum (T)” with microorganisms [3] (F. nucleatum) and “S. mutans (F)” in the test with microorganisms [3] (S. mutans). Besides, the “Target(s)” value in the test with microorganisms [1] is on record as “A. naeslundii; also recorded: F. nucleatum; also recorded: P. gingivalis; also recorded: S. mutans”. Also, the Activities result in the test with microorganisms [2] is listed as “G B”.
With “SIGSMIGMYSFRHKTKHIKFTFGIPFILFLQFLLVYFYILK [PF-319]”, in the test on microorganisms [3], the “Organism, effect: B. subtilis” value is “B. subtilis (C)” and the “Organism, effect: S. epidermidis” value is on record as “S. epidermidis (C)”. Also, the “Target(s)” value with microorganisms [1] is on record as “S. epidermidis; also recorded: B. subtilis; also recorded: C. difficile”. The Activities entry in the test with microorganisms [2] is recorded as “G B”.
Take “VWENRKKYLENEIERHNVFLKLGQEVIKGLNALASRGR [PF-257]”: the “Organism, effect: M. luteus” value in the test with microorganisms [3] is “M. luteus (R)”. Moreover, the “Target(s)” value in the test on microorganisms [1] is “S. epidermidis”. Besides, the Activities entry in the test on microorganisms [2] is reported as “G B”.
Take VYRKRKSILKIYAKLKGWH [K-2]: in the test on S. mutans, the “Organism MIC (μM)” value is reported as “S. mutans, 12.5 μM”.
Take VYSFLYVLVIVRKLLSMKKRIERL [PF-499]: the “Organism MIC (μM)” value with B. subtilis is “B. subtilis, 50 μM”. In addition, the “Target(s)” value with microorganisms [1] was “S. mutans; also recorded: E. coli”. In addition, the Activities result in the test on microorganisms [2] is “B M”.

B1: PF-389: peptide having multiple activities (peptide)
chain 1: GLQFKEIAEEFHITTTALQQWHKDNGYPIYNKNNRK
chain 2: GLQFKEIAEEFHITTTALQQWHKDNGYPIYNKNNRK
modifications: Peptide with targeting and/or antimicrobial activity
Regarding B1, the “Organism, effect: C. jejuni” value with microorganisms [3] (C. jejuni) is “C. jejuni (R)”. The “Organism, effect: E. faecalis” value with microorganisms [3] (E. faecalis) was “E. faecalis (R)”. Also, in the test with microorganisms [3] (MRSA), the “Organism, effect: MRSA” value is “MRSA (C)”. For the same molecule, in the test on microorganisms [3], the “Organism, effect: S. epidermidis” value is “S. epidermidis (R)”. Besides, in the test on microorganisms [3] (S. pneumoniae), the “Organism, effect: S. pneumoniae” value is “S. pneumoniae (D)”. In addition, the “Target(s)” value in the test with microorganisms [1] was “S. epidermidis and C. albicans and MRSA and S. pneumoniae and E. faecalis and C. jeikeium”. In addition, in the test on microorganisms [2], the Activities result was “G B”.

B2: PF-C181: peptide having multiple activities (peptide)
chain 1: KMRAGQVVFIYKLILVLLFYVLQKLFDLKKGCF
chain 2: KMRAGQVVFIYKLILVLLFYVLQKLFDLKKGCF
modifications: Peptide with targeting and/or antimicrobial activity
Regarding B2, in the test on microorganisms [3] (F. nucleatum), the “Organism, effect” value is listed as “F. nucleatum (T)”. Moreover, the “Target(s)” value in the test with microorganisms [1] is listed as “P. gingivalis”. Besides, the Activities entry with microorganisms [2] was “G B”.

B3: PF-270: peptide having multiple activities (peptide)
chain 1: MYLTPYAWIAVGSIFAFSVTTIKIGDQNDEKQKSHKNDVHKR
chain 2: MYLTPYAWIAVGSIFAFSVTTIKIGDQNDEKQKSHKNDVHKR
modifications: Peptide with targeting and/or antimicrobial activity
As for B3, in the test on microorganisms [3], the “Organism, effect: M. luteus” value is reported as “M. luteus (H)”. In addition, the “Target(s)” value in the test on microorganisms [1] is recorded as “S. epidermidis; also recorded: M. luteus; also recorded: P. aeruginosa”. Also, the Activities entry with microorganisms [2] is “G B”.

B4: PF-C120: peptide having multiple activities (peptide)
chain 1: ASLSTMTFKVMELKELIILLCGLTMLMIQTEFV
chain 2: ASLSTMTFKVMELKELIILLCGLTMLMIQTEFV
modifications: Peptide with targeting and/or antimicrobial activity
On to B4, for which the “Organism, effect” value in the test with microorganisms [3] (F. nucleatum) was “F. nucleatum (T)”. Also, the “Target(s)” value in the test with microorganisms [1] was “A. naeslundii; also recorded: F. nucleatum; also recorded: P. gingivalis; also recorded: S. mutans; also recorded: T. denticola”. Further, the Activities entry in the test with microorganisms [2] is “G B”.

B5: PF-C180: peptide having multiple activities (peptide)
chain 1: TVEELDKAFTWGAAAALAIGVIAINVGLAAGYCYNNNDVF
chain 2: TVEELDKAFTWGAAAALAIGVIAINVGLAAGYCYNNNDVF
modifications: Peptide with targeting and/or antimicrobial activity
In the case of B5, the “Organism, effect” value with microorganisms [3] (P. gingivalis) is listed as “P. gingivalis (R)”; in the test with microorganisms [3] (S. mutans), “S. mutans (S)”. In addition, the “Target(s)” value in the test on microorganisms [1] is “F. nucleatum; also recorded: P. gingivalis; also recorded: S. mutans; also recorded: T. denticola”. For the same molecule, the Activities entry with microorganisms [2] was “G B”.

B6: PF-C091: peptide having multiple activities (peptide)
chain 1: ASNTPRFVRLTLFNFYSKIWNVTHLFLFNNL
chain 2: ASNTPRFVRLTLFNFYSKIWNVTHLFLFNNL
modifications: Peptide with targeting and/or antimicrobial activity
In the case of B6, the “Organism, effect” value in the test on microorganisms [3] (F. nucleatum) is “F. nucleatum (T)”. In addition, the “Target(s)” value in the test on microorganisms [1] was “A. naeslundii; also recorded: F. nucleatum; also recorded: P. gingivalis; also recorded: S. mutans; also recorded: T. denticola”. Besides, the Activities result in the test on microorganisms [2] is reported as “G B”.

The record behind these values is US20110039763A1, “TARGETED ANTIMICROBIAL MOIETIES” (C3 JIAN, INC., priority 2009, published 2011).
